Test results taken from patent US6514993B1, “Serotonin 5-HT1A and dopamin D2 receptor ligands” (H. Lundbeck A/S, priority 1994, dated 2003).
Where a name gives a salt, the structure may show the parent alone.

Tests used:
5-HT1A receptors [1] = target: T1, 5-HT1A receptors (Rattus norvegicus, UniProt P19327); experiment: Inhibition of 3H-8-OH-DPAT binding to serotonin 5-HT1A receptors in rat brain in vitro; parameters: 5-HT1A receptors in membranes from rat brain minus cerebellum; from tissue; host or cells: rat brain minus cerebellum (membranes); details: 3H-8-OH-DPAT 1 nM, membranes from rat brain minus cerebellum
T1 sequence (P19327 1-422): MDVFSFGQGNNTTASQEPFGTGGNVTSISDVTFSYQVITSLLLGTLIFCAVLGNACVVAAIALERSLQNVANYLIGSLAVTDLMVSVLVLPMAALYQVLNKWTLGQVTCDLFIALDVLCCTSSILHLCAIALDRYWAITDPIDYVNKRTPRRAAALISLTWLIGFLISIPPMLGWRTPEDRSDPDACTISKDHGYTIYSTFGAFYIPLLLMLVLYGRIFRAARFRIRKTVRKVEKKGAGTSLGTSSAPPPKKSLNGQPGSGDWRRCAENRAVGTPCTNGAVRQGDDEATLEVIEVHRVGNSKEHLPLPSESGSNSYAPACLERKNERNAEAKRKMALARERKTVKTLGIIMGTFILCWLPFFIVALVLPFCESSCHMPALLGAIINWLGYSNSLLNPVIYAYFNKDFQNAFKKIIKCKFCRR
Experimental: Inhibition of ^3H8-OH-DPAT Binding to Serotonin 5-HT1A Receptors in Rat Brain in vitro
By this method the inhibition by drugs of the binding of the 5-HT1A agonist 3H-8-OH-DPAT (1 nM) to 5-HT1A receptors in membranes from rat brain minus cerebellum is determined in vitro. Accordingly, this is a test for affinity for the 5-HT1A receptor. The test was performed as described by Hyttel et al., Drug Dev. Res. 1988, 15, 389-404.

dopamine D2 receptors = dopamine D2 receptors (Rattus norvegicus, UniProt P61169); experiment: Inhibition of 3H-spiroperidol binding to dopamine D2 receptors in rat brain in vitro; details: 3H-spiroperidol 0.5 nM, membranes from rat corpus striatum; read-out: 3H Spiroperidole (D2) binding IC50
dopamine D2 receptors, sequence (P61169 1-415 isoform P61169-2): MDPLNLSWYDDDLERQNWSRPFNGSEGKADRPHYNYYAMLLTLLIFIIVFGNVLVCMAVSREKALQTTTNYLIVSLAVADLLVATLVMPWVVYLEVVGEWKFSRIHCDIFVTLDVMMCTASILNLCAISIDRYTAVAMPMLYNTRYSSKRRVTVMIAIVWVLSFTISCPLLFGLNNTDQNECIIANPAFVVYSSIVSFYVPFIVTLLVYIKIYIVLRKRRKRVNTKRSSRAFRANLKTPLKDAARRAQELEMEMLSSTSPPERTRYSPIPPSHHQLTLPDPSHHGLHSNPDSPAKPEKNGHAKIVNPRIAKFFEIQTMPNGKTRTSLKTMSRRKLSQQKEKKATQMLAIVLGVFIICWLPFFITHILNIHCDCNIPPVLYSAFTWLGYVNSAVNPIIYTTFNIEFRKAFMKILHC
Experimental: Inhibition of 3H-spiroperidol Binding to Dopamine D2 Receptors in Rat Brain in vitro
By this method the inhibition by drugs of the binding of the D2 antagonist ^3H-spiroperidol (0.5 nM) to D2 receptors in membranes from rat corpus striatum is determined in vitro. Accordingly, this is a test for affinity for the dopamine D2 receptor.

Cataleptogenic effect = experiment: Cataleptogenic effect; parameters: species or system rats; details: rat, in vivo; 1-6 h, sc; read-out: Catalepsy ED50
Description: Evaluation of cataleptogenic effects of the compounds of the invention was made according to the method of Sanchez, C. et al.; Drug Dev. Res. 1991, 22, 239-250.

5-HT1A receptors [2] = target: T1, 5-HT1A receptors; parameters: antagonist effects of a test compound on 5-HT1A receptors in vivo; from tissue; host or cells: whole animal (rat), in vivo behavioural test; details: partial 5-HT1A agonists; cited from earlier work

SMILES	IC50 (5-HT1A receptors [1])	IC50 (dopamine D2 receptors)	melting point	ED50 (Cataleptogenic effect)	Inhibition of 5-MeO-DMT-induced 5-HT syndrome (general statement) (5-HT1A receptors [2])
CC(C)Oc1ccccc1N1CCN(CCCN2CCN(c3ccccc3)C2=O)CC1 [Compound 4e, 1-[3-[4-(2-(2-propyloxy)phenyl)-1-piperazinyl]-1-propyl]-3-phenyl-2-imidazolidinone]	0.04 µM	0.024 µM	167 to 168 °C	> 34 µmol/kg	–
CC(C)Oc1ccccc1C1CCN(CCCCN2CCN(C3CCCCC3)C2=O)CC1.O=C(O)C(=O)O [Compound 6b, 3-Cyclohexyl-1-[4-[4-[2-(2-propyloxy)phenyl]-1-piperidinyl]butan-1-yl]-2-imidazolidinone, oxalate]	0.0054 µM	0.0087 µM	138 to 141 °C	> 38 µmol/kg	–
O=C(CCCN1CCC(O)(c2ccc(Cl)cc2)CC1)c1ccc(F)cc1 [haloperidol, reference compound]	–	–	–	0.36 µmol/kg	–
CC(C)Oc1ccccc1N1CCN(CCCCN2CCN(c3ccc(F)cc3)C2=O)CC1 [Compound 4b, 3-(4-Fluorophenyl)-1-[4-[4-[2-(2-propyloxy)phenyl]-1-piperazinyl]butan-1-yl]-2-imidazolidinone]	0.0022 µM	0.0039 µM	135 to 137 °C	> 44 µmol/kg	–
CC(C)(C)COc1ccccc1C1CCN(CCCCN2CCN(C3CCCCC3)C2=O)CC1.O=C(O)C(=O)O	–	–	162 to 168 °C	–	–
O=C1CC2(CCCC2)CC(=O)N1CCCCN1CCN(c2ncccn2)CC1 [buspirone, 8-[4-[4-(2-pyrimidyl)-1-piperazinyl]butyl]-8-azaspiro[4,5]decane-7,9-dione]	–	–	–	–	inhibit the characteristic 5-HT syndrome produced by 5-MeO DMT
O=C1N(CCCCN2CCN(c3ccccc3OS(=O)(=O)C(F)(F)F)CC2)CCN1C1CCCCC1 (as salt: hydrochloride) [Compound 7b, 3-Cyclohexyl-1-[4-[4-[2-(2-trifluoromethylsulfonyloxy)phenyl]-1-piperazinyl]butan-1-yl]-2-imidazolidinone, hydrochloride]	–	–	153 to 154 °C	–	–
CC(C)Oc1ccccc1C1=CCN(CCCCN2CCN(c3ccc(F)cc3)C2=O)CC1.O=C(O)C(=O)O [Compound 9b, 3-(4-Fluorophenyl)-1-[4-[4-[2-(2-propyloxy)phenyl]-1,2,3,6-tetrahydropyridin-1-yl]butan-1-yl]-2-imidazolidinone oxalate]	0.0028 µM	0.011 µM	150 to 152 °C	> 37 µmol/kg	–
O=C1N(CCCCN2CCN(c3ccccc3OS(=O)(=O)C(F)(F)F)CC2)CCN1C1CCCCC1 [Compound 7b, 3-Cyclohexyl-1-[4-[4-[2-(2-trifluoromethylsulfonyloxy)phenyl]-1-piperazinyl]butan-1-yl]-2-imidazolidinone, hydrochloride]	0.042 µM	0.049 µM	–	> 35 µmol/kg	–
CC(C)Oc1ccccc1C1=CCN(CCCCn2ccn(C3CCCCC3)c2=O)CC1 [Compound 9d, 3-Cyclohexyl-1-[4-[4-[2-(2-propyloxy)phenyl]-1,2,3,6-tetrahydropyridin-1-yl]butan-1-yl]-2,3-dihydroimidazol-2-one]	0.026 µM	0.027 µM	–	–	–
O=C1N(CCCCN2CCC(c3ccccc3OS(=O)(=O)C(F)(F)F)CC2)CCN1c1ccc(F)cc1 [Compound 7a, 3-(4-Fluorophenyl)-1-[4-[4-[2-(2-trifluoromethylsulfonyloxy)phenyl]-1-piperidinyl]butan-1-yl]-2-imidazolidinone]	0.037 µM	0.041 µM	–	–	–
CC(C)Oc1ccccc1C1=CCN(CCCCn2ccn(C34CC5CC(CC(C5)C3)C4)c2=O)CC1.O=C(O)C(=O)O	–	–	104 to 109 °C	–	–
O=C1N(CCCCN2CCN(c3ccccc3OC3CCCC3)CC2)CCN1c1ccc(F)cc1 [Compound 4d, 1-[4-[4-(2-Cyclopentyloxyphenyl)-1-piperazinyl]butan-1-yl]-3-(4-fluorophenyl)-2-imidazolidinone]	0.004 µM	0.015 µM	111 to 116 °C	> 42 µmol/kg	–
CC(C)Oc1ccccc1C1CCN(CCCCn2ccn(C34CC5CC(CC(C5)C3)C4)c2=O)CC1.O=C(O)C(=O)O	–	–	116 to 122 °C	–	–
CC(C)Oc1ccccc1C1CCN(CCCN2CCN(C3CCCCC3)C2=O)CC1.O=C(O)C(=O)O [Compound 6c, 3-Cyclohexyl-1-[3-[4-[2-(2-propyloxy)phenyl]-1-piperidinyl]-1-propyl]-2-imidazolidinone, oxalate]	0.035 µM	0.11 µM	136 to 139 °C	–	–
CC(C)Oc1ccccc1C1=CCN(CCCCN2CCN(C3CCCCC3)C2=O)CC1.O=C(O)C(=O)O [Compound 9a, 3-Cyclohexyl-1-[4-[4-[2-(2-propyloxy)phenyl]-1,2,3,6-tetrahydropyridin-1-yl]butan-1-yl]-2-imidazolidinone Oxalate]	0.009 µM	0.0087 µM	–	> 38 µmol/kg	–
Cl.Cl.O=C1N(CCCCN2CCN(c3ccccc3OC3CCCC3)CC2)CCN1C1CCCCC1 [Compound 4c, 3-Cyclohexyl-1-[4-[4-(2-cyclopentyloxyphenyl)-1-piperazinyl]butan-1-yl]-2-imidazolidinone, dihydrochloride]	0.0054 µM	0.013 µM	182 to 193 °C	> 37 µmol/kg	–
CC(C)Oc1ccccc1N1CCN(CCCCN2CCN(C3CCCCC3)C2=O)CC1.O=C(O)C(=O)O [Compound 4a, 3-Cyclohexyl-1-[4-[4-[2-(2-propyloxy)phenyl]-1-piperazinyl]butan-1-yl]-2-imidazolidinone, Oxalate]	0.0018 µM	0.0064 µM	–	> 38 µmol/kg	–
O=C(O)C(=O)O.O=C1N(CCCCN2CCC(c3ccccc3OCC3CC3)CC2)CCN1C1CCCCC1 [Compound 6f, 3-Cyclohexyl-1-[4-[4-[2-(cyclopropylmethoxy)phenyl]-1-piperidinyl]butan-1-yl]-2-imidazolidinone, oxalate]	0.026 µM	0.037 µM	186 to 193 °C	–	–
O=C1N(CCCCN2CCN(c3ccccc3OS(=O)(=O)C(F)(F)F)CC2)CCN1c1ccc(F)cc1 [Compound 7c, 3-(4-Fluorophenyl)-1-[4-[4-[2-(2-trifluoromethylsulfonyloxy)phenyl]-1-piperazinyl]butan-1-yl]-2-imidazolidinone]	0.015 µM	0.057 µM	68 to 70 °C	> 37 µmol/kg	–
CC(C)Oc1ccccc1C1CCN(CCCCN2CCN(C(C)C)C2=O)CC1.O=C(O)C(=O)O [Compound 6d, 3-(2-Propyl)-1-[4-[4-[2-(2-propyloxy)phenyl]-1-piperidinyl]-1-butyl]-2-imidazolidinone, oxalate]	0.005 µM	0.0077 µM	82 to 84 °C	> 41 µmol/kg	–
CC(C)Oc1ccccc1C1CCN(CCCCn2ccn(C3CCCCC3)c2=O)CC1.O=C(O)C(=O)O [Compound 6h, 3-Cyclohexyl-1-[4-[4-[2-(2-propyloxy)phenyl]-1-piperidinyl]butan-1-yl]-1,3-dihydroimidazol-2-one, oxalate]	0.0041 µM	0.01 µM	68 to 71 °C	> 38 µmol/kg	–
CC(C)Oc1ccccc1C1CCN(CCCCN2CCN(c3ccc(F)cc3)C2=O)CC1.O=C(O)C(=O)O [Compound 6a, 3-(4-Fluorophenyl)-1-[4-[4-[2-(2-propyloxy)phenyl]-1-piperidinyl]butan-1-yl]-2-imidazolidinone, Oxalate]	0.0048 µM	0.0079 µM	–	> 44 µmol/kg	–
CC(C)Oc1ccccc1C1CCN(CCCCCCN2CCN(C3CCCCC3)C2=O)CC1.O=C(O)C(=O)O [Compound 6e, 3-Cyclohexyl-1-[6-[4-[2-(2-propyloxy)phenyl]-1-piperidinyl]-1-hexyl]-2-imidazolidinone, oxalate]	0.02 µM	0.016 µM	77 to 79 °C	> 33 µmol/kg	–
